In patent publication US20250145594A1, “MODULATORS OF THE INTEGRATED STRESS PATHWAY” (Calico Life Sciences LLC, priority 2020, published 2025):

Tested on: ATF4 luciferase reporter in HEK293T cells
Experiment: ATF4-Luc assay (in vitro model of VWMD)
Format: cell-based, human
Details: Homo sapiens, HEK-293T, 7 h, HEK293T cells carrying the ATF4 luciferase reporter, 1 μg/mL tunicamycin, One Glo luminescence
How it was run: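 Tunicamycin (1 μg/mL) stress with co-added compound for 7 hours in HEK293T cells stably carrying an ATF4 5′-UTR–luciferase reporter. EC50 values come from the luminescent signal (One Glo).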

Structure (SMILES)	EC50
O=C(N[C@H]1C[C@@H](OC(F)(F)F)C1)c1cnn(C23CC(NC(=O)[C@H]4C[C@@H](O)c5cc(Cl)ccc5O4)(C2)C3)c1 [Compound 376, 1-(3-{[(2R,4R)-6-chloro-4-hydroxy-3,4-dihydro-2H-1-benzopyran-2-carbonyl]amino}bicyclo[1.1.1]pentan-1-yl)-N-[cis-3-(trifluoromethoxy)cyclobutyl]-1H-pyrazole-4-carboxamide]	50 to 250 nM
O=C(NC12CCC(n3cc(OCCOC(F)(F)F)cn3)(C1)C2)[C@H]1C[C@@H](O)c2cc(Cl)ccc2O1 [Compound 594, (2R,4R)-6-chloro-4-hydroxy-N-(4-{4-[2-(trifluoromethoxy)ethoxy]-1H-pyrazol-1-yl}bicyclo[2.1.1]hexan-1-yl)-3,4-dihydro-2H-1-benzopyran-2-carboxamide]	50 to 250 nM
O=C(NC12CC(c3cnn([C@H]4C[C@@H](OC(F)(F)F)C4)c3)(C1)C2)[C@H]1C[C@@H](O)c2cc(Cl)ccc2O1 [Compound 316, (2R,4R)-6-chloro-4-hydroxy-N-(3-{1-[cis-3-(trifluoromethoxy)cyclobutyl]-1H-pyrazol-4-yl}bicyclo[1.1.1]pentan-1-yl)-3,4-dihydro-2H-1-benzopyran-2-carboxamide]	< 10 nM
O=C(NC12CC(n3cnc(C(=O)N4CC[C@H](OC(F)(F)F)C4)c3)(C1)C2)[C@H]1C[C@@H](O)c2cc(Cl)ccc2O1 [Compound 386, (2R,4R)-6-chloro-4-hydroxy-N-(3-{4-[(3S)-3-(trifluoromethoxy)pyrrolidine-1-carbonyl]-1H-imidazol-1-yl}bicyclo[1.1.1]pentan-1-yl)-3,4-dihydro-2H-1-benzopyran-2-carboxamide]	< 10 nM
O=C(NC12CC(n3cc(C(=O)N4CC[C@H](OC(F)(F)F)C4)cn3)(C1)C2)[C@H]1C[C@H](O)c2cc(Cl)ccc2O1 [Compound 585, (2R,4S)-6-chloro-4-hydroxy-N-(3-{4-[(3S)-3-(trifluoromethoxy)pyrrolidine-1-carbonyl]-1H-pyrazol-1-yl}bicyclo[1.1.1]pentan-1-yl)-3,4-dihydro-2H-1-benzopyran-2-carboxamide]	< 10 nM
CCOc1ccc2nn(C34CC(NC(=O)COc5ccc(Cl)c(Cl)c5)(C3)C4)cc2c1 [Compound 623, 2-(3,4-dichlorophenoxy)-N-[3-(5-ethoxy-2H-indazol-2-yl)bicyclo[1.1.1]pentan-1-yl]acetamide]	< 10 nM
O=C(NC12CC(n3cnc([C@H]4C[C@@H](OC(F)(F)F)C4)c3)(C1)C2)[C@H]1C[C@@H](O)c2cc(Cl)c(F)cc2O1 [Compound 472, (2R,4R)-6-chloro-7-fluoro-4-hydroxy-N-(3-{4-[(1s,3S)-3-(trifluoromethoxy)cyclobutyl]-1H-imidazol-1-yl}bicyclo[1.1.1]pentan-1-yl)-3,4-dihydro-2H-1-benzopyran-2-carboxamide]	< 10 nM
O=C(NC12CC(n3cc(C(=O)N4CC(OC(F)(F)F)C4)cn3)(C1)C2)[C@H]1C[C@@H](O)c2cc(Cl)ccc2O1 [Compound 341, (2R,4R)-6-chloro-4-hydroxy-N-(3-{4-[3-(trifluoromethoxy)azetidine-1-carbonyl]-1H-pyrazol-1-yl}bicyclo[1.1.1]pentan-1-yl)-3,4-dihydro-2H-1-benzopyran-2-carboxamide]	10 to 50 nM
O=C(NC12CC(n3cc4c(n3)CN(C(=O)COC(F)(F)F)C4)(C1)C2)[C@H]1C[C@@H](O)c2cc(Cl)c(F)cc2O1 [Compound 511, (2R,4R)-6-chloro-7-fluoro-4-hydroxy-N-(3-{5-[(trifluoromethoxy)acetyl]-5,6-dihydropyrrolo[3,4-c]pyrazol-2(4H)-yl}bicyclo[1.1.1]pentan-1-yl)-3,4-dihydro-2H-1-benzopyran-2-carboxamide]	10 to 50 nM
COc1cc2cn(C34CC(NC(=O)[C@H]5C[C@@H](O)c6cc(C(F)(F)F)ccc6O5)(C3)C4)nc2cn1 [Compound 499, (2R,4R)-4-hydroxy-N-[3-(5-methoxy-2H-pyrazolo[3,4-c]pyridin-2-yl)bicyclo[1.1.1]pentan-1-yl]-6-(trifluoromethyl)-3,4-dihydro-2H-1-benzopyran-2-carboxamide]	10 to 50 nM
O=C(NC12CC(n3cc(OCCCOC(F)(F)F)cn3)(C1)C2)[C@H]1C[C@@H](O)c2cc(Cl)ccc2O1 [Compound 431, (2R,4R)-6-chloro-4-hydroxy-N-(3-{4-[3-(trifluoromethoxy)propoxy]-1H-pyrazol-1-yl)bicyclo[1.1.1]pentan-1-yl)-3,4-dihydro-2H-1-benzopyran-2-carboxamide]	< 10 nM
O=C(NC12CC(n3cc(-c4ccc(OC(F)(F)F)cn4)cn3)(C1)C2)[C@H]1C[C@@H](O)c2cc(C(F)(F)F)c(F)cc2O1 [Compound 485, (2R,4R)-7-fluoro-4-hydroxy-N-(3-{4-[5-(trifluoromethoxy)pyridin-2-yl]-1H-pyrazol-1-yl}bicyclo[1.1.1]pentan-1-yl)-6-(trifluoromethyl)-3,4-dihydro-2H-1-benzopyran-2-carboxamide]	< 10 nM
O=C(N[C@H]1CC[C@H](n2cc(OCCOC(F)(F)F)cn2)CC1)[C@H]1C[C@@H](O)c2cc(Cl)c(F)cc2O1 [Compound 419, (2R,4R)-6-chloro-7-fluoro-4-hydroxy-N-[(1r,4R)-4-{4-[2-(trifluoromethoxy)ethoxy]-1H-pyrazol-1-yl}cyclohexyl]-3,4-dihydro-2H-1-benzopyran-2-carboxamide]	< 10 nM
O=C(NC12CC(n3cc(C(=O)N4CC[C@@H](OC(F)(F)F)C4)cn3)(C1)C2)[C@H]1C[C@@H](O)c2cc(Cl)ccc2O1 [Compound 370, (2R,4R)-6-chloro-4-hydroxy-N-(3-{4-[(3R)-3-(trifluoromethoxy)pyrrolidine-1-carbonyl]-1H-pyrazol-1-yl}bicyclo[1.1.1]pentan-1-yl)-3,4-dihydro-2H-1-benzopyran-2-carboxamide]	10 to 50 nM
O=C(NC12CC(n3cc(NCCCOC(F)(F)F)cn3)(C1)C2)[C@H]1C[C@@H](O)c2cc(Cl)ccc2O1 [Compound 444, (2R,4R)-6-chloro-4-hydroxy-N-[3-(4-{[3-(trifluoromethoxy)propyl]amino}-1H-pyrazol-1-yl)bicyclo[1.1.1]pentan-1-yl]-3,4-dihydro-2H-1-benzopyran-2-carboxamide]	< 10 nM
O=C(N[C@H]1C[C@H]2O[C@@H]1C[C@@H]2c1nnc([C@H]2C[C@@H](OC(F)(F)F)C2)o1)[C@@H]1C[C@H](O)c2cc(Cl)ccc2O1 (mixture of isomers) [Compound 186, (2S,4S)-6-chloro-4-hydroxy-N-[(1RS,2SR,4RS,5SR)-5-{5-[cis-3-(trifluoromethoxy)cyclobutyl]-1,3,4-oxadiazol-2-yl}-7-oxabicyclo[2.2.1]heptan-2-yl]-3,4-dihydro-2H-1-benzopyran-2-carboxamide]	10 to 50 nM
COc1ccc2nn(C34CC(NC(=O)C5CNc6cc(C(F)(F)F)c(F)cc6O5)(C3)C4)cc2c1 (stereo not drawn) [Compound 653, 7-fluoro-N-[3-(5-methoxy-2H-indazol-2-yl)bicyclo[1.1.1]pentan-1-yl]-6-(trifluoromethyl)-3,4-dihydro-2H-1,4-benzoxazine-2-carboxamide]	50 to 250 nM
O=C(NC12CC(n3cc(-c4ccc(OC(F)(F)F)nc4)cn3)(C1)C2)[C@@H]1C[C@@H](O)c2cc(Cl)ccc2O1 [Compound 351, (2S,4R)-6-chloro-4-hydroxy-N-(3-{4-[6-(trifluoromethoxy)pyridin-3-yl]-1H-pyrazol-1-yl}bicyclo[1.1.1]pentan-1-yl)-3,4-dihydro-2H-1-benzopyran-2-carboxamide]	< 10 nM
O=C(NC12CCC(n3cc(-c4ccc(C(F)(F)F)cn4)cn3)(C1)C2)[C@H]1C[C@@H](O)c2cc(Cl)ccc2O1 [Compound 626, (2R,4R)-6-chloro-4-hydroxy-N-(4-{4-[5-(trifluoromethyl)pyridin-2-yl]-1H-pyrazol-1-yl}bicyclo[2.1.1]hexan-1-yl)-3,4-dihydro-2H-1-benzopyran-2-carboxamide]	10 to 50 nM
O=C(NC12CC(n3cc(CCCC(F)(F)F)cn3)(C1)C2)[C@H]1C[C@@H](O)c2cc(Cl)c(F)cc2O1 [Compound 520, (2R,4R)-6-chloro-7-fluoro-4-hydroxy-N-{3-[4-(4,4,4-trifluorobutyl)-1H-pyrazol-1-yl]bicyclo[1.1.1]pentan-1-yl}-3,4-dihydro-2H-1-benzopyran-2-carboxamide]	10 to 50 nM
O=C(NC12CC(n3cc([C@H]4C[C@@H](OC(F)(F)F)C4)nn3)(C1)C2)[C@H]1C[C@@H](O)c2cc(Cl)ccc2O1 [Compound 385, (2R,4R)-6-chloro-4-hydroxy-N-(3-{4-[cis-3-(trifluoromethoxy)cyclobutyl]-1H-1,2,3-triazol-1-yl}bicyclo[1.1.1]pentan-1-yl)-3,4-dihydro-2H-1-benzopyran-2-carboxamide]	< 10 nM
O=C(NC12CC(n3cc(-c4ccc(OC(F)(F)F)cn4)cn3)(C1)C2)[C@@H]1C[C@@H](O)c2cc(C(F)(F)F)ccc2O1 [Compound 550, (2S,4R)-4-hydroxy-N-(3-{4-[5-(trifluoromethoxy)pyridin-2-yl]-1H-pyrazol-1-yl}bicyclo[1.1.1]pentan-1-yl)-6-(trifluoromethyl)-3,4-dihydro-2H-1-benzopyran-2-carboxamide]	< 10 nM
O=C(NC12CC(c3ccc(C(=O)N4CC(OCC(F)(F)F)C4)nc3)(C1)C2)[C@H]1C[C@@H](O)c2cc(Cl)ccc2O1 [Compound 533, (2R,4R)-6-chloro-4-hydroxy-N-(3-{6-[3-(2,2,2-trifluoroethoxy)azetidine-1-carbonyl]pyridin-3-yl}bicyclo[1.1.1]pentan-1-yl)-3,4-dihydro-2H-1-benzopyran-2-carboxamide]	< 10 nM
O=C(NC12CC(n3cc(-c4cnn(C(F)(F)F)c4)cn3)(C1)C2)[C@H]1C[C@@H](O)c2cc(Cl)c(F)cc2O1 [Compound 479, (2R,4R)-6-chloro-7-fluoro-4-hydroxy-N-{3-[1′-(trifluoromethyl)-1H,1′H-[4,4′-bipyrazol]-1-yl]bicyclo[1.1.1]pentan-1-yl}-3,4-dihydro-2H-1-benzopyran-2-carboxamide]	< 10 nM
